Patent publication US8703961B2, “Thiazole derivatives for the treatment of diseases such as cancer” (Merck Patent GmbH, priority 2009, dated 2014)

How the values were obtained:
Assay in all cases: filter binding kinase assay
Assay type in all cases: biochemical
[1] = biological target: T1, AKT2 (Homo sapiens, UniProt P31751); settings: derived from % inhibition at 1 μM
T1 construct: purchased
Experimental: (§1) All kinase assays were carried out using the Multidrop 384 from Thermo-Fisher at room temperature in a total assay volume of 25.5 μl. 15 μl of an enzyme mix comprising enzyme and substrate in buffer are added to the test batch comprising either 0.5 μl of test substance, DMSO control or empty container. Test substances are pre-incubated in the presence of the enzyme and substrate for 5 minutes before the reaction is initiated by addition of 10 μl of ATP (concentration kinase-dependent of […]). The reaction is terminated by addition of 5 μl of orthophosphoric acid (50 mM). The test containers are then transferred onto P81 Unifilter plates by means of a “Packard Harvester” and dried in air. The dry Unifilter plates are sealed after the addition of MicroScint O, and the radioactivity is determined in a Packard Topcount NXT.

[2] = biological target: T2, AURKA (Aurora A) (Homo sapiens, UniProt O14965); settings: for IC50: derived from % inhibition at 1 μM; for remaining activity at 1 µM: read-out: residual kinase activity Aurora A
T2 construct: purchased
T2 sequence (O14965 1-403): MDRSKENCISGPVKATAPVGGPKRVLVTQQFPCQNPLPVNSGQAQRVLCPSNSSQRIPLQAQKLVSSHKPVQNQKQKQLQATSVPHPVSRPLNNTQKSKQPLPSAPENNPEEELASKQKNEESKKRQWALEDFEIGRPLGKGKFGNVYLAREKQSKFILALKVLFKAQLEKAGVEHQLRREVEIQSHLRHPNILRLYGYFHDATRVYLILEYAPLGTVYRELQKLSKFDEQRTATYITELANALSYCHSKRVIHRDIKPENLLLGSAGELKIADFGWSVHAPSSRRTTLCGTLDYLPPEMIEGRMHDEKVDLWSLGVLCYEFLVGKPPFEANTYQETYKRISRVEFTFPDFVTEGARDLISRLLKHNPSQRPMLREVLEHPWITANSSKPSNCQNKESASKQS
Experimental: as §1

[3] = biological target: T3, BRSK1 (Homo sapiens, UniProt Q8TDC3); settings: derived from % inhibition at 1 μM
T3 construct: purchased
T3 sequence (Q8TDC3 1-778): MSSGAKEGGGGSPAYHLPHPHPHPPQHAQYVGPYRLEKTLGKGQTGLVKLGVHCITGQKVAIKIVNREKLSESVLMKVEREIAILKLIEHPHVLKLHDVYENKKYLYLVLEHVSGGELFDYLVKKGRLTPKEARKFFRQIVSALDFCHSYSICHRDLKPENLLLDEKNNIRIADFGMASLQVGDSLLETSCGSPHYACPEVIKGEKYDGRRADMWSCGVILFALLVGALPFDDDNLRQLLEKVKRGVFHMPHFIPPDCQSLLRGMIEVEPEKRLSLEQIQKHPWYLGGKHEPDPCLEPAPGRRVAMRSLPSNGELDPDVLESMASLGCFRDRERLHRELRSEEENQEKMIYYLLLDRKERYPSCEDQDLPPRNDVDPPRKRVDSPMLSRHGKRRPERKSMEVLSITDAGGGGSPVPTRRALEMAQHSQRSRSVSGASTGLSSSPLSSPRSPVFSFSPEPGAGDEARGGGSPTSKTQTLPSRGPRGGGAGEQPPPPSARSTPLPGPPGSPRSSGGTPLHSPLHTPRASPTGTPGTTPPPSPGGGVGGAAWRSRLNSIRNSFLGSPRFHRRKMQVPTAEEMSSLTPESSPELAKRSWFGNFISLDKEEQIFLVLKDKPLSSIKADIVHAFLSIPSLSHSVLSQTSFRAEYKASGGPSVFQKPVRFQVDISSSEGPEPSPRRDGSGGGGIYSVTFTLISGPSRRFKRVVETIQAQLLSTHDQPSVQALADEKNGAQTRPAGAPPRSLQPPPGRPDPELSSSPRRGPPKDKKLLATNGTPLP
Experimental: as §1

[4] = biological target: T4, CSK (Homo sapiens, UniProt P41240); settings: derived from % inhibition at 1 μM
T4 construct: purchased
Experimental: as §1

[5] = biological target: T5, CSNK1D (Homo sapiens, UniProt P48730); settings: derived from % inhibition at 1 μM
T5 construct: purchased
Experimental: as §1

[6] = biological target: T6, DYRK3 (Homo sapiens, UniProt O43781); settings: derived from % inhibition at 1 μM
T6 construct: purchased
T6 sequence (O43781 1-588): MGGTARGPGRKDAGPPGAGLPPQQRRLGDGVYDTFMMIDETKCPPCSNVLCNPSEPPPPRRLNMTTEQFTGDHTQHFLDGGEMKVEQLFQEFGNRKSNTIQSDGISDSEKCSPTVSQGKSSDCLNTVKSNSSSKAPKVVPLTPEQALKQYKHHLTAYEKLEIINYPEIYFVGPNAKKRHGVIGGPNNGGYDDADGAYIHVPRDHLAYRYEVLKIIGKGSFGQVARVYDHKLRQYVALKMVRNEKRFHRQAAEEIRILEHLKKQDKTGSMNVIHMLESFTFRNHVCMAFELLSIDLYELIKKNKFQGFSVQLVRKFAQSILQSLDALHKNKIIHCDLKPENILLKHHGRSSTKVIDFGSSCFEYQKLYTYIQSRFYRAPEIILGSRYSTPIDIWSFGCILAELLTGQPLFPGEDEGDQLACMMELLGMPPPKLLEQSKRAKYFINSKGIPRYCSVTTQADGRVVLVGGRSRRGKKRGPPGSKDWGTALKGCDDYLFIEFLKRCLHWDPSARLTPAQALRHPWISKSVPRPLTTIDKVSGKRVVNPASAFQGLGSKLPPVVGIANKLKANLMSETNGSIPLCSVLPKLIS
Experimental: as §1

[7] = biological target: T7, MAP2K1 (MKK1) (Homo sapiens, UniProt Q02750); settings: for IC50: derived from % inhibition at 1 μM
T7 construct: purchased
Experimental: as §1

[8] = biological target: T8, MAPK10 (Homo sapiens, UniProt P53779); settings: derived from % inhibition at 1 μM
T8 construct: purchased
Experimental: as §1

[9] = biological target: T9, MET (Homo sapiens, UniProt P08581); settings: derived from % inhibition at 1 μM
T9 construct: 6His (N); purchased Upstate 14-526; host or cells: insect cells (Sf21; S. frugiperda), baculovirus
Experimental: as §1

[10] = biological target: T10, MINK1 (Homo sapiens, UniProt Q8N4C8); settings: derived from % inhibition at 1 μM
T10 construct: purchased
Experimental: as §1

[11] = biological target: T11, MST4 (Homo sapiens, UniProt Q9P289); settings: derived from % inhibition at 1 μM
T11 construct: purchased
Experimental: as §1

[12] = biological target: T12, RIPK2 (Homo sapiens, UniProt O43353); settings: derived from % inhibition at 1 μM
T12 construct: purchased
Experimental: as §1

[13] = biological target: T13, RPS6KA1 (Homo sapiens, UniProt Q15418); settings: derived from % inhibition at 1 μM
T13 construct: purchased
Experimental: as §1

[14] = biological target: T14, RPS6KB1 (Homo sapiens, UniProt P23443); settings: derived from % inhibition at 1 μM
T14 construct: purchased
Experimental: as §1

[15] = biological target: T15, SRPK1 (Homo sapiens, UniProt Q96SB4); settings: derived from % inhibition at 1 μM
T15 construct: purchased
Experimental: as §1

T13 sequence (Q15418 whole entry, species assumed): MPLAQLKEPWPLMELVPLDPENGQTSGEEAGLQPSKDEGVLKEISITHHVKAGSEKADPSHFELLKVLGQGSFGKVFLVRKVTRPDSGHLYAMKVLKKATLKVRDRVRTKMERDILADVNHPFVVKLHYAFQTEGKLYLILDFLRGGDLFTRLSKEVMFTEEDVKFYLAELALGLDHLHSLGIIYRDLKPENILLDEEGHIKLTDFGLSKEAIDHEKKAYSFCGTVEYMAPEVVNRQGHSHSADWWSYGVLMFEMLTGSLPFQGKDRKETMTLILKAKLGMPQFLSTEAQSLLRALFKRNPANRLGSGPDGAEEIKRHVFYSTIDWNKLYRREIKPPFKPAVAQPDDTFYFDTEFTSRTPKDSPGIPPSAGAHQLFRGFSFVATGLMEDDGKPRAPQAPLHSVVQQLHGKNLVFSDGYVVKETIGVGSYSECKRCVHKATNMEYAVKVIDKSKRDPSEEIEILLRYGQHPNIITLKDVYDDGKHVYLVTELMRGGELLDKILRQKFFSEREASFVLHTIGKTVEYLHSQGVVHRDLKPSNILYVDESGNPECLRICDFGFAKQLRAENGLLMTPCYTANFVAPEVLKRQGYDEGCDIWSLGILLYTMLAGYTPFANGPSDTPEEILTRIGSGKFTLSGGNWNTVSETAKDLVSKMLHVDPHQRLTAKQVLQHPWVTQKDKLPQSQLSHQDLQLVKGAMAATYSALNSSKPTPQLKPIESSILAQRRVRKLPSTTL
T11 sequence (Q9P289 whole entry, species assumed): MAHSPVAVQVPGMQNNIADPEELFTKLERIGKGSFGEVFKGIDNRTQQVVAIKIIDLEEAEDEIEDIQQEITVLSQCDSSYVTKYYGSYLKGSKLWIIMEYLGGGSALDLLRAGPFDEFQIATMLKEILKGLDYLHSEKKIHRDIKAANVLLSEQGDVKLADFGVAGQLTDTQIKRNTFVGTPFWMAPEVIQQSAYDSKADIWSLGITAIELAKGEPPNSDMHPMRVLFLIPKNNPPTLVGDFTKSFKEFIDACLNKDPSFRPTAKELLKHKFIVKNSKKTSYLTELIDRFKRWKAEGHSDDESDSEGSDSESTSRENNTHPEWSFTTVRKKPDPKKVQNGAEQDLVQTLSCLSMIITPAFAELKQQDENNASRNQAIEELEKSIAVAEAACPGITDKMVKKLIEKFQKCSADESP
T8 sequence (P53779 whole entry, species assumed): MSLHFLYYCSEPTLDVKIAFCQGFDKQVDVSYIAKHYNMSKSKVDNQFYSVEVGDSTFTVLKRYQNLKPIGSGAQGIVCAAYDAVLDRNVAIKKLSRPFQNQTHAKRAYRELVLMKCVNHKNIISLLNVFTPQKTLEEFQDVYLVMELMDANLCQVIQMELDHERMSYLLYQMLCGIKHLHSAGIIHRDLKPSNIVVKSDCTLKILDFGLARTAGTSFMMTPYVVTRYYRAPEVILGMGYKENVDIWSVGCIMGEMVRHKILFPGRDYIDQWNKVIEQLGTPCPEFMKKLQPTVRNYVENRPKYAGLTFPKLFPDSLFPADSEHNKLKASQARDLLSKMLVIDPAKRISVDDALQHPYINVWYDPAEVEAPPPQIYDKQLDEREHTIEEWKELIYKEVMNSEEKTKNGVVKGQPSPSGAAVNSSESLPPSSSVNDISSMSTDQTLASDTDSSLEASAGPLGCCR
T7 sequence (Q02750 whole entry, species assumed): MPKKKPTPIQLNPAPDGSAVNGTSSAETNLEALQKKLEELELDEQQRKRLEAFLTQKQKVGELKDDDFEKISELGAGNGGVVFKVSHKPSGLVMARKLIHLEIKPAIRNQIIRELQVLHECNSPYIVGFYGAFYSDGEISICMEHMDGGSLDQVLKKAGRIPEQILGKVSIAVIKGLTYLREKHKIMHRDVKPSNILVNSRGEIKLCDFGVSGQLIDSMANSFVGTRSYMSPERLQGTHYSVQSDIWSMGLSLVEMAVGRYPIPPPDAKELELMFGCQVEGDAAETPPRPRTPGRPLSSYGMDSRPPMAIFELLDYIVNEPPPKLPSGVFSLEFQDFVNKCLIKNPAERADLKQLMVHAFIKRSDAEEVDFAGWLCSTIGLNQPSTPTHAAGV
T5 sequence (P48730 whole entry, species assumed): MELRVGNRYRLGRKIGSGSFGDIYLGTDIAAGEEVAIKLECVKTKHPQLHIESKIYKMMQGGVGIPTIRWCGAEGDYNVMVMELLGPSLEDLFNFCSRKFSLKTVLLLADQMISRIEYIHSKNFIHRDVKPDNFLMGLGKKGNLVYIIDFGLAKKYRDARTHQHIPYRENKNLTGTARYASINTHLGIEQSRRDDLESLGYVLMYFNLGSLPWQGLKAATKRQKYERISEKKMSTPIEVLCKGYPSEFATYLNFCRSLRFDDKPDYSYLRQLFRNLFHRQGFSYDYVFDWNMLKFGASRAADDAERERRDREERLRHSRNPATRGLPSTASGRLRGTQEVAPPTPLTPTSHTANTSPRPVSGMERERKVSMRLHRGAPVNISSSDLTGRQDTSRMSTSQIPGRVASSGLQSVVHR
T12 sequence (O43353 whole entry, species assumed): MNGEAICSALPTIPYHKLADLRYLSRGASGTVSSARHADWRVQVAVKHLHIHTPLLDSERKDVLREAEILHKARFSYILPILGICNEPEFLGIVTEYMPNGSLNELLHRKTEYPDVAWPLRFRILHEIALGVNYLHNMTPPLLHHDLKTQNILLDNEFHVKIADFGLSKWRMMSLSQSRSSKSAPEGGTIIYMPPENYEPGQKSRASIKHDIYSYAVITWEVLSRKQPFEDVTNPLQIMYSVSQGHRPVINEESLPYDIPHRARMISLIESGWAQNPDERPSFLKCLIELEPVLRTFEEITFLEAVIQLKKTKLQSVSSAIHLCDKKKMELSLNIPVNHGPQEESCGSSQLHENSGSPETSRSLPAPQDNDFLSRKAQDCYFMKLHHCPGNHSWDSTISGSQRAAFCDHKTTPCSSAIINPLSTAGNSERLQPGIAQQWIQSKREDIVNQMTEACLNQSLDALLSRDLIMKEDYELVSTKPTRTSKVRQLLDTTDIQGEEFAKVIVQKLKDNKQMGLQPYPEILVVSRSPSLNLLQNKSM
T10 sequence (Q8N4C8 whole entry, species assumed): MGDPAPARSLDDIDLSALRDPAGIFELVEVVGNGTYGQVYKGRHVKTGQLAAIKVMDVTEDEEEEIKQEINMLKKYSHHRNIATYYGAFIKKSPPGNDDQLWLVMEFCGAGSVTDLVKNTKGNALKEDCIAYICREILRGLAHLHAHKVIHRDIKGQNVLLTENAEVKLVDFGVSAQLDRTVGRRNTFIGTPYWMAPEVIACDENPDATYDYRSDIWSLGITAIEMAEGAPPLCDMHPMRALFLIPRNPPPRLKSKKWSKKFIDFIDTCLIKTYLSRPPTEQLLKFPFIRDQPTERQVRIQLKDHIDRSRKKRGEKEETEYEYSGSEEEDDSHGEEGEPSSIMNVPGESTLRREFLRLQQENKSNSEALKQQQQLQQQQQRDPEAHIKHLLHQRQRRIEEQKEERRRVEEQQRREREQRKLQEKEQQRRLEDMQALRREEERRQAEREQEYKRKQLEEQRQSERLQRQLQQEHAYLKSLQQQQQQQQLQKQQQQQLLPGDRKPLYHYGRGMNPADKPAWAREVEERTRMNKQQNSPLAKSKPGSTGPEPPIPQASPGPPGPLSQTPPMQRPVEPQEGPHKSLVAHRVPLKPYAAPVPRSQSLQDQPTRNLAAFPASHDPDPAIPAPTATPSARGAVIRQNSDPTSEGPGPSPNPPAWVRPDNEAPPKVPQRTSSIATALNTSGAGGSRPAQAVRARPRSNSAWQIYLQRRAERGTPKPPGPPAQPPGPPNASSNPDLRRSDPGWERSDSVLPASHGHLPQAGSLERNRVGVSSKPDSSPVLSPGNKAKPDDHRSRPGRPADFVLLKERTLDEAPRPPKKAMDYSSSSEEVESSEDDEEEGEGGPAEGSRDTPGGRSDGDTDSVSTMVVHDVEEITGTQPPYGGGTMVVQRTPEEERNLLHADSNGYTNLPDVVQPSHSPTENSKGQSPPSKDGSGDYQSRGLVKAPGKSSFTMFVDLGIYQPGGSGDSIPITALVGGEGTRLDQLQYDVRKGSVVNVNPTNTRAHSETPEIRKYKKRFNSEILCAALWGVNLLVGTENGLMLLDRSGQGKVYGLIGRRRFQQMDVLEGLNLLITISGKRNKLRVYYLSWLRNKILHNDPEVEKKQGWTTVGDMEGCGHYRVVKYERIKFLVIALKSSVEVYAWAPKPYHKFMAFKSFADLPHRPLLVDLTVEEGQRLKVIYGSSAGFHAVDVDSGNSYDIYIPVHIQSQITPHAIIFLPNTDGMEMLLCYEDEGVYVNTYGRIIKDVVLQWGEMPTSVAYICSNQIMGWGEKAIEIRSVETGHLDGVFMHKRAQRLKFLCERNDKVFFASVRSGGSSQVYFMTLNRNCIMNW
T1 sequence (P31751 whole entry, species assumed): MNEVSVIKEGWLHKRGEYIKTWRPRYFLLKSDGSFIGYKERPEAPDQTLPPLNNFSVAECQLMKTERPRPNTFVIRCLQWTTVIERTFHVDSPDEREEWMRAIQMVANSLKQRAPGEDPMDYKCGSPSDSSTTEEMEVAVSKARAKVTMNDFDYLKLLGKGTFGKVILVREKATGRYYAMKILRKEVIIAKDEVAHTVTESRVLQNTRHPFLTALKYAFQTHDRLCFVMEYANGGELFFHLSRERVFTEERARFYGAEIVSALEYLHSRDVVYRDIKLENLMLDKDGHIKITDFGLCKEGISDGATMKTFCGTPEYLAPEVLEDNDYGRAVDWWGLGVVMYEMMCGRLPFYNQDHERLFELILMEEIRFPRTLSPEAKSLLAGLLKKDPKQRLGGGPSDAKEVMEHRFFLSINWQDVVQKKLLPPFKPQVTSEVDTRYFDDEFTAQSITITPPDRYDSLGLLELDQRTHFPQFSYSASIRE

Row | SMILES | IC50 [1] [nM] | IC50 [2] [nM] | remaining activity at 1 µM [2] [%] | IC50 [3] [nM] | IC50 [4] [nM] | IC50 [5] [nM] | IC50 [6] [nM] | IC50 [7] [nM] | IC50 [8] [nM] | IC50 [9] [nM] | IC50 [10] [nM] | IC50 [11] [nM] | IC50 [12] [nM] | IC50 [13] [nM] | IC50 [14] [nM] | IC50 [15] [nM] | remaining activity at 1 µM ([7]; read-out: residual kinase activity MKK1) [%]
1 | c1ccc(Cc2c[nH]c3ncsc23)cc1 [Compound A7, 6-benzyl-4H-pyrrolo[2,3-d]thiazole] | > 1000 | 10 to 1000 | 33 | 1000 to 10000 | 1000 to 10000 | 1000 to 10000 | 10000 to 100000 | 1000 to 10000 | > 1000 | 1000 to 10000 | 1000 to 10000 | > 1000 | 10000 to 100000 | 10000 to 100000 | 1000 to 10000 | 10000 to 100000 | 
2 | Nc1ncsc1C#Cc1cnc2[nH]ccc2c1 [Compound A22, 5-(1H-pyrrolo[2,3-b]pyridin-5-ylethynyl)thiazol-4-ylamine] | > 1000 | 10 to 1000 | 39 | 1000 to 10000 | 10000 to 100000 | 10000 to 100000 | 10000 to 100000 | 10 to 1000 | > 1000 | > 1000 | 1000 to 10000 | 1000 to 10000 | 1000 to 10000 | > 1000 | 1000 to 10000 | > 1000 | 43
3 | CC(C)(C)OC(=O)Nc1nc(-c2ccncc2)sc1C#CCN1CCOCC1 [Compound A25, tert-butyl[5-(3-morpholin-4-ylprop-1-ynyl)-2-pyridin-4-ylthiazol-4-yl]-carbamate] | 1000 to 10000 | > 1000 |  | > 1000 | > 1000 | > 1000 | 10000 to 100000 | 1000 to 10000 | > 1000 | > 1000 | 10000 to 100000 | > 1000 | > 1000 | 10000 to 100000 | > 1000 | > 1000 | 
4 | CC(C)(C)OC(=O)Nc1ncsc1C#CCN1C(=O)c2ccccc2C1=O [Compound A26, tert-butyl{5-[3-(1,3-dioxo-1,3-dihydroisoindol-2-yl)prop-1-ynyl]-thiazol-4-yl}carbamate] | > 1000 | 1000 to 10000 |  | > 1000 | 10000 to 100000 | > 1000 | 1000 to 10000 | 1000 to 10000 | > 1000 | > 1000 | 10000 to 100000 | 10000 to 100000 | 10000 to 100000 | > 1000 | > 1000 | > 1000 | 
5 | Nc1ncsc1C#Cc1cccc(O)c1 [Compound A27, 3-(4-aminothiazol-5-ylethynyl)phenol] | 1000 to 10000 | 1000 to 10000 |  | 1000 to 10000 | 10000 to 100000 | 1000 to 10000 | 10000 to 100000 | > 1000 | 1000 to 10000 | 10000 to 100000 | 1000 to 10000 | > 1000 | 1000 to 10000 | > 1000 | 1000 to 10000 | 1000 to 10000 | 
